In patent US20250122225A1, “MASP-2 INHIBITORS AND METHODS OF USE” (Omeros Corporation, priority 2023, published 2025):
Counter-ions that a name gives are not always drawn.

Assays:
MASP-2 (CCP1-CCP2-SP) = biological target: T1, MASP-2 (CCP1-CCP2-SP) (Homo sapiens, UniProt O00187); assay: Enzymatic assay for MASP-2 inhibitory activity (fluorogenic substrate); assay type: biochemical
T1 construct: 15 μL of Enzyme MASP-2 (CCP1-CCP2-SP) in Assay Buffer
Method in brief: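 MASP-2 (CCP1-CCP2-SP) cleaved a fluorogenic substrate based on the C2 cleavage site in 20 mM HEPES pH 7.4, 140 mM NaCl, 0.1% Tween 20 at room temperature. After 20 min the reaction was stopped with 0.1 M acetic acid and fluorescence read. % activity was normalized to DMSO-only and no-enzyme controls; IC50 taken as Ki.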

human α-thrombin = biological target: T2, human α-thrombin (Homo sapiens, UniProt P00734); assay: Enzymatic assay for thrombin (fluorogenic peptide substrate Boc-VPR-AMC); assay type: biochemical
T2 construct: enzyme (human α-thrombin (BioPharm® Lab.)) in assay buffer; purchased BioPharm® Lab
Method in brief: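 Human α-thrombin was run with the fluorogenic substrate Boc-VPR-AMC in 20 mM Hepes pH 7.4, 140 mM NaCl, 0.1% Tween 20 at room temperature for 20 min, then stopped with 0.1 M acetic acid. % activity was normalized to DMSO and no-enzyme controls. Under linear conditions IC50 equalled Ki, except for tight-binding inhibitors.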

T1 sequence (O00187 445-686 limits assumed): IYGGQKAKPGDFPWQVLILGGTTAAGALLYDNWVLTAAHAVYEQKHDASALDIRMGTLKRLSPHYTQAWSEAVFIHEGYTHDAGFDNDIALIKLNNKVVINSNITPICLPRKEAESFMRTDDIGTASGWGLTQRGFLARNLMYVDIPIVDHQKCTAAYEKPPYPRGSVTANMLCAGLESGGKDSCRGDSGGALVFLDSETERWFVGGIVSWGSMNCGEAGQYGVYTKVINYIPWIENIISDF
T1 sequence (O00187 287-444 partner limits assumed): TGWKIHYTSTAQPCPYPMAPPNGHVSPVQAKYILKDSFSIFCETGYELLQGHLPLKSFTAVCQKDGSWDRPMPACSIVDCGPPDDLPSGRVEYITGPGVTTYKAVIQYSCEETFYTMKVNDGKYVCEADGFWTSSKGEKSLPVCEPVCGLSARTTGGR

Structure (SMILES)	Ki (MASP-2 (CCP1-CCP2-SP)) [nM]	Ki (human α-thrombin) [nM]
Cc1cc(F)cc(CNc2ncc3n(c2=O)[C@H](C(=O)NCc2cnc(N)c(Cl)c2)CC3)c1 [Compound 192, (S)-N-((6-amino-5-chloropyridin-3-yl)methyl)-3-((3-fluoro-5-methylbenzyl)amino)-4-oxo-4,6,7,8-tetrahydropyrrolo[1,2-a]pyrazine-6-carboxamide trifluoroacetate]	< 500	500 to 2500
Cc1ccc(C)c(CNc2ncc3n(c2=O)[C@H](C(=O)N[C@H](C)c2ccc(N)nc2)CC3)c1 [Compound 193, (S)-N-((R)-1-(6-aminopyridin-3-yl)ethyl)-3-((2,5-dimethylbenzyl)amino)-4-oxo-4,6,7,8-tetrahydropyrrolo[1,2-a]pyrazine-6-carboxamide trifluoroacetate]	< 500	2500 to 10000
CCc1cccc(CNc2ncc3n(c2=O)[C@H](C(=O)N[C@H](C)c2ccc(N)nc2)CC3)c1 [Compound 195, (S)-N-((R)-1-(6-aminopyridin-3-yl)ethyl)-3-((3-ethylbenzyl)amino)-4-oxo-4,6,7,8-tetrahydropyrrolo[1,2-a]pyrazine-6-carboxamide trifluoroacetate]	< 500	2500 to 10000
Cc1ccc(F)cc1CNc1ncc2n(c1=O)[C@H](C(=O)N[C@H](C)c1ccc(N)nc1)CC2 [Compound 196, (S)-N-((R)-1-(6-aminopyridin-3-yl)ethyl)-3-((5-fluoro-2-methylbenzyl)amino)-4-oxo-4,6,7,8-tetrahydropyrrolo[1,2-a]pyrazine-6-carboxamide trifluoroacetate]	< 500	10000 to 25000
Cc1cc(C)cc(CNc2ncc3n(c2=O)[C@H](C(=O)N[C@H](C)c2ccc(N)nc2)CC3)c1 [Compound 198, (S)-N-((R)-1-(6-aminopyridin-3-yl)ethyl)-3-((3,5-dimethylbenzyl)amino)-4-oxo-4,6,7,8-tetrahydropyrrolo[1,2-a]pyrazine-6-carboxamide trifluoroacetate]	< 500	2500 to 10000
Cc1ccc(F)c(CNc2ncc3n(c2=O)[C@H](C(=O)N[C@H](C)c2ccc(N)nc2)CC3)c1 [Compound 199, (S)-N-((R)-1-(6-aminopyridin-3-yl)ethyl)-3-((2-fluoro-5-methylbenzyl)amino)-4-oxo-4,6,7,8-tetrahydropyrrolo[1,2-a]pyrazine-6-carboxamide trifluoroacetate]	< 500	2500 to 10000
COc1cc(F)cc(CNc2ncc3n(c2=O)[C@H](C(=O)N[C@H](C)c2ccc(N)nc2)CC3)c1 [Compound 200, (S)-N-((R)-1-(6-aminopyridin-3-yl)ethyl)-3-((3-fluoro-5-methoxybenzyl)amino)-4-oxo-4,6,7,8-tetrahydropyrrolo[1,2-a]pyrazine-6-carboxamide trifluoroacetate]	< 500	2500 to 10000
C[C@@H](NC(=O)[C@@H]1CCc2cnc(NCc3cccc(-c4ccccc4)c3)c(=O)n21)c1ccc(N)nc1 [Compound 201, (S)-3-(([1,1′-biphenyl]-3-ylmethyl)amino)-N-((R)-1-(6-aminopyridin-3-yl)ethyl)-4-oxo-4,6,7,8-tetrahydropyrrolo[1,2-a]pyrazine-6-carboxamide]	< 500	> 25000
Cc1ccccc1CNc1ncc2n(c1=O)[C@H](C(=O)N[C@H](C)c1ccc(N)nc1)CC2 [Compound 202, (S)-N-((R)-1-(6-aminopyridin-3-yl)ethyl)-3-((2-methylbenzyl)amino)-4-oxo-4,6,7,8-tetrahydropyrrolo[1,2-a]pyrazine-6-carboxamide]	< 500	10000 to 25000
Cc1cc(CNc2ncc3n(c2=O)[C@H](C(=O)N[C@H](C)c2ccc(N)nc2)CC3)cc(C(F)(F)F)c1 [Compound 203, (S)-N-((R)-1-(6-aminopyridin-3-yl)ethyl)-3-((3-methyl-5-(trifluoromethyl)benzyl)amino)-4-oxo-4,6,7,8-tetrahydropyrrolo[1,2-a]pyrazine-6-carboxamide]	< 500	2500 to 10000
Cc1cc(F)cc(CNc2ncc3n(c2=O)[C@H](C(=O)NCc2cnc4ccccn24)CC3)c1 [Compound 204, trifluoroacetate]	2500 to 10000	> 25000
Cc1cc(F)cc(CNc2ncc3n(c2=O)[C@H](C(=O)NCc2ccc(CN)cc2C)CC3)c1 [Compound 205, (S)—N-(4-(aminomethyl)-2-methylbenzyl)-3-((3-fluoro-5-methylbenzyl)amino)-4-oxo-4,6,7,8-tetrahydropyrrolo[1,2-a]pyrazine-6-carboxamide trifluoroacetate]	< 500	2500 to 10000
Cc1cc(F)cc(CNc2ncc3n(c2=O)[C@H](C(=O)NCc2c(C)cc(CN)cc2C)CC3)c1 [Compound 206, trifluoroacetate]	500 to 2500	10000 to 25000
CC(C)c1cccc(CNc2ncc3n(c2=O)[C@H](C(=O)NCc2ccc(N)nc2)CC3)c1 [Compound 207, (S)—N-((6-aminopyridin-3-yl)methyl)-3-((3-isopropylbenzyl)amino)-4-oxo-4,6,7,8-tetrahydropyrrolo[1,2-a]pyrazine-6-carboxamide trifluoroacetate]	< 500	< 500
Cc1nc(N)ccc1CNC(=O)[C@@H]1CCc2cnc(NCc3cccc(C(C)C)c3)c(=O)n21 [Compound 208]	< 500	< 500
Cc1cc(F)cc(CNc2nc(-c3ccnn3C)c3n(c2=O)[C@H](C(=O)NCc2cc4c(s2)CNC4)CC3)c1 [Compound 209, (S)—N-((5,6-dihydro-4H-thieno[2,3-c]pyrrol-2-yl)methyl)-3-((3-fluoro-5-methylbenzyl)amino)-1-(1-methyl-1H-pyrazol-5-yl)-4-oxo-4,6,7,8-tetrahydropyrrolo[1,2-a]pyrazine-6-carboxamide trifluoroacetate]	< 500	2500 to 10000
Cc1cc(F)cc(CNc2nc(C3CC3)c3n(c2=O)[C@H](C(=O)NCc2ccc(N)nc2C)CC3)c1 [Compound 210, (S)—N-((6-amino-2-methylpyridin-3-yl)methyl)-1-cyclopropyl-3-((3-fluoro-5-methylbenzyl)amino)-4-oxo-4,6,7,8-tetrahydropyrrolo[1,2-a]pyrazine-6-carboxamide trifluoroacetate]	< 500	500 to 2500
Cc1cc(F)cc(CNc2nc(C(C)C)c3n(c2=O)[C@H](C(=O)NCc2ccc(N)nc2C)CC3)c1 [Compound 211, (S)-N-((6-amino-2-methylpyridin-3-yl)methyl)-3-((3-fluoro-5-methylbenzyl)amino)-1-isopropyl-4-oxo-4,6,7,8-tetrahydropyrrolo[1,2-a]pyrazine-6-carboxamide trifluoroacetate]	< 500	< 500
Cc1cc(F)cc(CNc2nc(Cl)c3n(c2=O)[C@H](C(=O)NCc2ccc(N)nc2C)CC3)c1 [Compound 212, (S)—N-((6-amino-2-methylpyridin-3-yl)methyl)-1-chloro-3-((3-fluoro-5-methylbenzyl)amino)-4-oxo-4,6,7,8-tetrahydropyrrolo[1,2-a]pyrazine-6-carboxamide trifluoroacetate]	< 500	2500 to 10000
Cc1cc(F)cc(CNc2nc(-c3cnn(C(F)F)c3)c3n(c2=O)[C@H](C(=O)NCc2ccc(N)nc2C)CC3)c1 [Compound 214, (S)—N-((6-amino-2-methylpyridin-3-yl)methyl)-1-(1-(difluoromethyl)-1H-pyrazol-4-yl)-3-((3-fluoro-5-methylbenzyl)amino)-4-oxo-4,6,7,8-tetrahydropyrrolo[1,2-a]pyrazine-6-carboxamide trifluoroacetate]	< 500	> 25000
